Our source for the pKa values is patent US5432042A, “Method for obtaining a printing plate according to the silver salt diffusion transfer process” (Agfa-Gevaert, N.V., priority 1993, dated 1995).

Structures are written as SMILES.

This data set is described as follows: pKa of the mercapto group by titration with hydrochloric acid. The class given is physicochemical. The note with it: 0.002 mole/liter in water at pH 11, titrated with hydrochloric acid (0.1 mole/liter). How it is done:
The pKa of the hydrophobizing compounds in connection with the present invention were determined according to the method described in "Ionization Constants of Acids and Bases--A Laboratory Manual" written by Adrien Albert and E. P. Serjeant and Edited by John Wiley & Sons (New York) page 110-112 (1962).
In these particular cases, the hydrophobizing compounds were dissolved in water at pH 11. The concentration of the hydrophobizing compounds was 0.002 mole/liter and the mixture was then titrated with a solution of hydrochloric acid (0.1 mole/liter).
For the compound `CCCCCCn1nnnc1S` [compound 3], the pKa turned out to be 3.4. In turn, `CCCCCCNC(=O)Cn1nnnc1S` [compound 1] showed a pKa of 3.3.

On to `CCCCCCCc1nnc(S)o1` [2-mercapto-5-n.heptyl-oxa-3,4-diazole, reference compound], for which the pKa is 4.8.
